In PubChem BioAssay AID1963437 (Molecular Pharmacology Branch, DTP, NCI, 2024):
pIC50: −log10 of the molar value. Values belong to the molecule of their own block, whether it stands above or below them.

Tested on: OVCAR-8 complex spheroid, growth inhibition
Assay: Anticancer human tumor OVCAR-8 cell line growth inhibition [Asc];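 further: spheroids exposed to agents for 7 days before readout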;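 on viability, T/C: percent viability relative to DMSO vehicle wells taken as 100%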
Settings: for pIC50: curve of first compound; for viability, T/C: stronger effect = lower value
How it was run: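 Complex solid-tumor spheroids incorporating human endothelial and mesenchymal stem cells received single agents or combinations over half-log dilution ranges anchored to clinical Cmax.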

[1] = second compound 0.00316 µM, first compound 0.0316 µM
[2] = second compound 0.00316 µM, first compound 0.1 µM
[3] = second compound 0.00316 µM, first compound 0.316 µM
[4] = second compound 0.00316 µM, first compound 1 µM
[5] = second compound 0.01 µM, first compound 0.0316 µM
[6] = second compound 0.01 µM, first compound 0.1 µM
[7] = second compound 0.01 µM, first compound 0.316 µM
[8] = second compound 0.01 µM, first compound 1 µM
[9] = second compound 0.0316 µM, first compound 0.0316 µM
[10] = second compound 0.0316 µM, first compound 0.1 µM
[11] = second compound 0.0316 µM, first compound 0.316 µM
[12] = second compound 0.0316 µM, first compound 1 µM
[13] = second compound 0.1 µM, first compound 0.0316 µM
[14] = second compound 0.1 µM, first compound 0.1 µM
[15] = second compound 0.1 µM, first compound 0.316 µM
[16] = second compound 0.1 µM, first compound 1 µM
[17] = second compound 0.316 µM, first compound 0.0316 µM
[18] = second compound 0.316 µM, first compound 0.1 µM
[19] = second compound 0.316 µM, first compound 0.316 µM
[20] = second compound 0.316 µM, first compound 1 µM
[21] = second compound 1 µM, first compound 0.0316 µM
[22] = second compound 1 µM, first compound 0.1 µM
[23] = second compound 1 µM, first compound 0.316 µM
[24] = second compound 1 µM, first compound 1 µM
[25] = second compound 0.00316 µM, first compound 0.00316 µM
[26] = second compound 0.00316 µM, first compound 0.01 µM
[27] = second compound 0.01 µM, first compound 0.00316 µM
[28] = second compound 0.01 µM, first compound 0.01 µM
[29] = second compound 0.0316 µM, first compound 0.00316 µM
[30] = second compound 0.0316 µM, first compound 0.01 µM
[31] = second compound 0.1 µM, first compound 0.00316 µM
[32] = second compound 0.1 µM, first compound 0.01 µM
[33] = second compound 0.316 µM, first compound 0.00316 µM
[34] = second compound 0.316 µM, first compound 0.01 µM
[35] = second compound 1 µM, first compound 0.00316 µM
[36] = second compound 1 µM, first compound 0.01 µM

pIC50 (second compound 0.00316 µM): < 5.00 | pIC50 (second compound 0.01 µM): < 5.00 | pIC50 (second compound 0.0316 µM): < 5.00 | pIC50 (second compound 0.1 µM): < 5.00 | pIC50 (second compound 0.316 µM): < 5.00 | pIC50 (second compound 1 µM): < 5.00
Structure (SMILES): C=CC(=O)N1CCN(c2nc(=O)n(-c3c(C)ccnc3C(C)C)c3nc(-c4c(O)cccc4F)c(F)cc23)C(C)C1 (stereo unspecified) + CNC(C)C(=O)NC1CN(S(=O)(=O)c2cccc(S(=O)(=O)N3CCC4CCC(C(=O)NC(c5ccccc5)c5ccccc5)N4C(=O)C(NC(=O)C(C)NC)C3)c2)CCC2CCC(C(=O)NC(c3ccccc3)c3ccccc3)N2C1=O
viability, T/C [1]: 105% | viability, T/C [2]: 89.3% | viability, T/C [3]: 105% | viability, T/C [4]: 98.7% | viability, T/C (second compound 0.00316 µM, first compound 3.16 µM): 88.3% | viability, T/C (second compound 0.00316 µM, first compound 10 µM): 112% | viability, T/C [5]: 96.9% | viability, T/C [6]: 95% | viability, T/C [7]: 83.6% | viability, T/C [8]: 89.2% | viability, T/C (second compound 0.01 µM, first compound 3.16 µM): 90.6% | viability, T/C (second compound 0.01 µM, first compound 10 µM): 122% | viability, T/C [9]: 94.3% | viability, T/C [10]: 90.5% | viability, T/C [11]: 91.2% | viability, T/C [12]: 81.9% | viability, T/C (second compound 0.0316 µM, first compound 3.16 µM): 86.4% | viability, T/C (second compound 0.0316 µM, first compound 10 µM): 103% | viability, T/C [13]: 85.8% | viability, T/C [14]: 81.4% | viability, T/C [15]: 89.7% | viability, T/C [16]: 86.1% | viability, T/C (second compound 0.1 µM, first compound 3.16 µM): 80% | viability, T/C (second compound 0.1 µM, first compound 10 µM): 92.2% | viability, T/C [17]: 80% | viability, T/C [18]: 84.2% | viability, T/C [19]: 107% | viability, T/C [20]: 69.4% | viability, T/C (second compound 0.316 µM, first compound 3.16 µM): 79.6% | viability, T/C (second compound 0.316 µM, first compound 10 µM): 90.8% | viability, T/C [21]: 68.4% | viability, T/C [22]: 79.8% | viability, T/C [23]: 79.1% | viability, T/C [24]: 84.7% | viability, T/C (second compound 1 µM, first compound 3.16 µM): 65.5% | viability, T/C (second compound 1 µM, first compound 10 µM): 69.1%

pIC50 (second compound 0.00316 µM): < 6.00 | pIC50 (second compound 0.01 µM): < 6.00 | pIC50 (second compound 0.0316 µM): 6.04 | pIC50 (second compound 0.1 µM): 6.14 | pIC50 (second compound 0.316 µM): 6.25 | pIC50 (second compound 1 µM): 6.49
Structure (SMILES): COc1c(OCCCN2CCOCC2)ccc2c3n(c(=NC(=O)c4cnc(N)nc4)nc12)CCN3 + CNC(C)C(=O)NC1CN(S(=O)(=O)c2cccc(S(=O)(=O)N3CCC4CCC(C(=O)NC(c5ccccc5)c5ccccc5)N4C(=O)C(NC(=O)C(C)NC)C3)c2)CCC2CCC(C(=O)NC(c3ccccc3)c3ccccc3)N2C1=O
viability, T/C [25]: 110% | viability, T/C [26]: 94.7% | viability, T/C [1]: 131% | viability, T/C [2]: 137% | viability, T/C [3]: 126% | viability, T/C [4]: 73.1% | viability, T/C [27]: 99.5% | viability, T/C [28]: 105% | viability, T/C [5]: 113% | viability, T/C [6]: 149% | viability, T/C [7]: 129% | viability, T/C [8]: 64.4% | viability, T/C [29]: 99.6% | viability, T/C [30]: 92.7% | viability, T/C [9]: 107% | viability, T/C [10]: 133% | viability, T/C [11]: 135% | viability, T/C [12]: 44.7% | viability, T/C [31]: 82.5% | viability, T/C [32]: 92.9% | viability, T/C [13]: 101% | viability, T/C [14]: 115% | viability, T/C [15]: 105% | viability, T/C [16]: 31.6% | viability, T/C [33]: 87.5% | viability, T/C [34]: 77.3% | viability, T/C [17]: 98.7% | viability, T/C [18]: 113% | viability, T/C [19]: 84.1% | viability, T/C [20]: 16% | viability, T/C [35]: 92.9% | viability, T/C [36]: 90.4% | viability, T/C [21]: 111% | viability, T/C [22]: 92.5% | viability, T/C [23]: 51.3% | viability, T/C [24]: 4.42%

pIC50 (second compound 0.00316 µM): < 7.00 | pIC50 (second compound 0.01 µM): < 7.00 | pIC50 (second compound 0.0316 µM): < 7.00 | pIC50 (second compound 0.1 µM): < 7.00 | pIC50 (second compound 0.316 µM): < 7.00 | pIC50 (second compound 1 µM): < 7.00
Structure (SMILES): NC1CCC(NC2CC2c2ccccc2)CC1 (stereo unspecified) + CNC(C)C(=O)NC1CN(S(=O)(=O)c2cccc(S(=O)(=O)N3CCC4CCC(C(=O)NC(c5ccccc5)c5ccccc5)N4C(=O)C(NC(=O)C(C)NC)C3)c2)CCC2CCC(C(=O)NC(c3ccccc3)c3ccccc3)N2C1=O
viability, T/C (second compound 0.00316 µM, first compound 0.000316 µM): 117% | viability, T/C (second compound 0.00316 µM, first compound 0.001 µM): 106% | viability, T/C [25]: 102% | viability, T/C [26]: 90.9% | viability, T/C [1]: 99.4% | viability, T/C [2]: 87.1% | viability, T/C (second compound 0.01 µM, first compound 0.000316 µM): 118% | viability, T/C (second compound 0.01 µM, first compound 0.001 µM): 87.7% | viability, T/C [27]: 119% | viability, T/C [28]: 91.5% | viability, T/C [5]: 86.7% | viability, T/C [6]: 91.7% | viability, T/C (second compound 0.0316 µM, first compound 0.000316 µM): 93.9% | viability, T/C (second compound 0.0316 µM, first compound 0.001 µM): 112% | viability, T/C [29]: 96.3% | viability, T/C [30]: 98.5% | viability, T/C [9]: 101% | viability, T/C [10]: 107% | viability, T/C (second compound 0.1 µM, first compound 0.000316 µM): 79.2% | viability, T/C (second compound 0.1 µM, first compound 0.001 µM): 79.2% | viability, T/C [31]: 93.3% | viability, T/C [32]: 93% | viability, T/C [13]: 88.4% | viability, T/C [14]: 104% | viability, T/C (second compound 0.316 µM, first compound 0.000316 µM): 78.8% | viability, T/C (second compound 0.316 µM, first compound 0.001 µM): 86.6% | viability, T/C [33]: 88.2% | viability, T/C [34]: 80% | viability, T/C [17]: 82.8% | viability, T/C [18]: 87.2% | viability, T/C (second compound 1 µM, first compound 0.000316 µM): 77.9% | viability, T/C (second compound 1 µM, first compound 0.001 µM): 79.3% | viability, T/C [35]: 94% | viability, T/C [36]: 74.7% | viability, T/C [21]: 85.3% | viability, T/C [22]: 85.7%
